# Legend:
# [1] = system: aberrant crypt foci (ACF); assay: Azoxymethane (AOM)-induced aberrant crypt foci (ACF) in LOI(+) and LOI(−) mice, NVP-AEW541 by oral gavage; assay type: in vivo; conditions: for AOM-induced ACF formation: AOM plus NVP-AEW541 50 mg/kg oral gavage for 6 weeks; for decrease in ACFs normalized to colon surface area: AOM, treated with the inhibitor
# Method: ACF formation in the colon was induced by AOM intraperitoneal injection, and treatment with NVP-AEW541 was by gastric gavage. Each ACF was formed of 1-4 aberrant crypts, and the number of ACF (# of ACF), the number of total aberrant crypts (# of AC), and the average number of aberrant crypts per ACF were measured.
# (A) ACF formation in the colon was induced by AOM i.p. injection, and treatment with NVP-AEW541 was by gastric […]. Each ACF was formed of […] aberrant crypts, and the number of ACF (# of ACF), the number of total aberrant crypts (# of AC), and the average number of aberrant crypts per ACF were measured. LOI(+) AOM mice (dark gray bars), LOI(−) AOM mice (black bars), LOI(+) AOM NVP mice (light gray bars), LOI(−) AOM NVP mice (gray bars). (B) The number of ACF and the number of total aberrant crypts (AC) were corrected by colon surface area (cm^2).
# 7 week old LOI(+) and LOI(−) littermate controls were treated with AOM at 10 mg/kg body weight intraperitoneally once per week for three weeks, and euthanized 5 weeks after the first dose of AOM. The entire colon was resected from mice after laparotomy, flushed with PBS, filled with 10% buffered formalin (Sigma) for one minute, opened longitudinally, fixed flat between filter paper in formalin at 4° C. overnight, rinsed with PBS, and stained with 0.2% methylene blue in saline. The number of ACF per colon and the number of aberrant crypts per ACF were scored under a light microscopy as previously described Bird, Cancer Lett (1987) 37:147-151). NVP-AEW541 (50 mg/kg) was administered by oral gavage, beginning 1 week before AOM treatment, and NVP-AEW541 was administered 7 days/week, twice a day for 5 weekdays and once a day for 2 weekend days, for 6 weeks until sacrifice.
# Because of known strain variation in progression of these lesions, littermate controls were treated with and without LOI, in which the dams were heterozygous for a deletion of the H19 differentially methylated region (DMR); inheritance of a maternal allele lacking the DMR leads to activation of the normally silent allele of Igf2 [LOI(+)], while inheritance of a wild type maternal allele leads to normal imprinting [LOI(−)]. Eight LOI(+) and 14 LOI(−) mice were given AOM intraperitoneally weekly for 3 weeks, sacrificed at 5 weeks after the first dose, and ACF were scored by the method of Bird (1987). Histologic examination of colons from AOM-treated mice confirmed the presence of ACF, with hyperproliferative features including increased mitosis, crypt enlargement and crypt disarray (FIG. 12). […] An additional intriguing finding in AOM-treated LOI(+) mice was cystically dilated crypts lined by enlarged cells with atypical nuclei and that contained necrotic debris, that were reminiscent of sessile serrated adenomas (SSAs) seen in the human colon (FIG. 12). SSAs also show crypt dilatation in association with cytologic atypia and are currently of immense interest for their recently recognized association with colorectal cancer (Snover et al., Am J Clin Pathol (2005) 124:380-391). It will thus be of interest to determine whether SSAs are associated with LOI in the human population.
# An additional 9 LOI(+) mice and 9 LOI(−) control littermates were similarly exposed to AOM, adding treatment with NVP-AEW541, an IGF1R inhibitor, at a dose of 50 mg/kg by oral gavage daily for 6 weeks (twice daily except daily on weekends). […] Thus, LOI of lgf2 increases the sensitivity to AOM through an IGF1R-dependent mechanism.
# Eight LOI(+) and 14 LOI(−) mice were given AOM intraperitoneally weekly for 3 weeks, sacrificed at 5 weeks after the first dose, and ACFs were scored as described (Bird (1987)). Histologic examination of colons from AOM-treated mice confirmed the presence of ACFs, with hyperproliferative features including increased mitosis, crypt enlargement and crypt disarray (FIG. 14A, B). […]
# [2] = system: intestinal crypts; assay: Proliferation-related gene expression in laser capture microdissected intestinal crypts of mice treated with NVP-AEW541 for 3 weeks (real-time PCR); assay type: in vivo; conditions: mice treated with NVP-AEW541 50 mg/kg oral gavage for 3 weeks; LOI(−) normalized to 1.0
# Method: Qunatitative real-time PCR was performed on laser capture microdissected intestinal crypts from 12 LOI(+) and 9 LOI(−) mice. Expression was normalized to β-actin, and the expression level in LOI(+) samples (gray) relative to LOI(−) samples (black) is shown. The bars indicate standard error. […] Analysis was by quantitative real-time PCR of laser capture microdissected crypts from four LOI(+) mice and four LOI(−) mice treated with NVP-AEW541 for 3 weeks. LOI(+) (gray bars), LOI(−) mice (black bars normalized to 1.0).
# For validation, LCM was performed on an additional 12 LOI(+) and 9 LOI(−) mice, isolating approximately 800 crypts yielding more than 300 ng of total RNA from each. RNA samples were reverse-transcribed using SUPERSCRIPT II (Invitrogen), and quantified using SYBR Green PCR Core Reagents and an ABI Prism 7700 Sequence Detection System (Applied Biosystems), and normalized to β-actin.
# Four LOI(+) and four LOI(−) mice were also treated with NVP-AEW541 to inhibit IGF2 signaling, at a dose of 50 mg/kg by oral gavage daily for 3 weeks (twice daily except daily on weekends). NVP-AEW541 is an ATP-competitive inhibitor of IGF-IR which blocks signaling at the IGF1 receptor, which mediates IGF2 signaling (Garcia-Echeverria et al., Cancer Cell (2004) 5:231-239). […] Thus, LOI-induced changes in proliferation-related gene expression were mediated, at least in part, through IGF2 signaling itself.
# [3] = target: T1, IGF1 receptor (Mus musculus, UniProt Q60751); assay: Western blot of IGF2 signaling at the IGF1 receptor in NIH 3T3 cells with varying NVP-AEW541; assay type: cell-based; conditions: varying concentrations of NVP-AEW541, with or without IGF2
# T1 construct: endogenous in cells; host or cells: NIH 3T3 cells
# T1 sequence (Q60751 31-1373): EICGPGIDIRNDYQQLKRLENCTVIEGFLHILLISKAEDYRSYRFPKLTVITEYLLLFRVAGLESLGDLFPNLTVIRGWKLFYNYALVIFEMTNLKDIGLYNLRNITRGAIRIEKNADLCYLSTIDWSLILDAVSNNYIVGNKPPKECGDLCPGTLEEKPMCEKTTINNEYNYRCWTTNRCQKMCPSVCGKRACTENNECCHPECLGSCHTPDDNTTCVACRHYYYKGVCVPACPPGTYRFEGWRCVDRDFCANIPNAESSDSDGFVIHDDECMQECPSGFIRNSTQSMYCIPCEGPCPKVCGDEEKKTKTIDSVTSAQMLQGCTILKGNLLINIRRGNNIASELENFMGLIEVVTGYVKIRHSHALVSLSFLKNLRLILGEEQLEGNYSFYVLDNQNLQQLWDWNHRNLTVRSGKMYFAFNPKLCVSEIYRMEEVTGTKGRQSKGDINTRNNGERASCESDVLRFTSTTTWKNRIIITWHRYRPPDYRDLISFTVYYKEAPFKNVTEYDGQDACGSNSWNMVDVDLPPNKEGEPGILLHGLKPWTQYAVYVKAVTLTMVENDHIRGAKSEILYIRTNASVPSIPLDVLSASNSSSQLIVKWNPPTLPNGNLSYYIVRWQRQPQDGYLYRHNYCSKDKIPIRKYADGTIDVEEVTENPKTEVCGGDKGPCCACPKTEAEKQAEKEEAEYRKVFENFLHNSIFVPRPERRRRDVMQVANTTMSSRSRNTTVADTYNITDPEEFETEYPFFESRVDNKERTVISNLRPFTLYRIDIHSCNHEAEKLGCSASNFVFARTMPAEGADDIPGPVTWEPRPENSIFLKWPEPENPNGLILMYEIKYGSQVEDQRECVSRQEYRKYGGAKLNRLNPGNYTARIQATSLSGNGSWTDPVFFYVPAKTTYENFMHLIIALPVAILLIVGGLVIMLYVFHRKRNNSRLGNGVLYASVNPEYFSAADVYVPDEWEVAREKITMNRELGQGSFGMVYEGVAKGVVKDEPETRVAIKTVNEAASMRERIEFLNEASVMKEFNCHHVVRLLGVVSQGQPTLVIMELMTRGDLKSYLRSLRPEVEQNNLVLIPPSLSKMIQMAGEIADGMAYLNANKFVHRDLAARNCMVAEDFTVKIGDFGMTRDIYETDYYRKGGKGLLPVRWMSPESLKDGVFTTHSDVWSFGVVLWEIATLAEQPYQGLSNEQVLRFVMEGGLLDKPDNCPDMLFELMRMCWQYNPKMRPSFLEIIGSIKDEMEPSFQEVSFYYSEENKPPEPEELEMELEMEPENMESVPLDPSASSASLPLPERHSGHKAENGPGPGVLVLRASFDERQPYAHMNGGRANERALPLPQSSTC
# Method: NIH 3T3 cells were passaged every 3 days and maintained with low glucose DMEM plus 10% CBS in 5% CO2. The day prior to transfection cells were trypinsized and seeded into PLL-coated glass bottom Mattek dishes. Cells typically reached about 70% confluence the next day, when they were transfected with eGFP-Akt-PH plasmid with Fugene lipid following the manufacturer's instructions. 8 hours after transfection, cells were starved in 0.2% CBS in low glucose DMEM (with no antibiotics) for at least 12 hours. Western blots were performed with the antibodies shown, and varying concentrations of NVP-AEW541, with or without IGF2.
# [4] = target: IGF1R (Homo sapiens, UniProt P08069); conditions: cited from earlier work
# IGF1R, sequence (P08069 31-1367, species assumed): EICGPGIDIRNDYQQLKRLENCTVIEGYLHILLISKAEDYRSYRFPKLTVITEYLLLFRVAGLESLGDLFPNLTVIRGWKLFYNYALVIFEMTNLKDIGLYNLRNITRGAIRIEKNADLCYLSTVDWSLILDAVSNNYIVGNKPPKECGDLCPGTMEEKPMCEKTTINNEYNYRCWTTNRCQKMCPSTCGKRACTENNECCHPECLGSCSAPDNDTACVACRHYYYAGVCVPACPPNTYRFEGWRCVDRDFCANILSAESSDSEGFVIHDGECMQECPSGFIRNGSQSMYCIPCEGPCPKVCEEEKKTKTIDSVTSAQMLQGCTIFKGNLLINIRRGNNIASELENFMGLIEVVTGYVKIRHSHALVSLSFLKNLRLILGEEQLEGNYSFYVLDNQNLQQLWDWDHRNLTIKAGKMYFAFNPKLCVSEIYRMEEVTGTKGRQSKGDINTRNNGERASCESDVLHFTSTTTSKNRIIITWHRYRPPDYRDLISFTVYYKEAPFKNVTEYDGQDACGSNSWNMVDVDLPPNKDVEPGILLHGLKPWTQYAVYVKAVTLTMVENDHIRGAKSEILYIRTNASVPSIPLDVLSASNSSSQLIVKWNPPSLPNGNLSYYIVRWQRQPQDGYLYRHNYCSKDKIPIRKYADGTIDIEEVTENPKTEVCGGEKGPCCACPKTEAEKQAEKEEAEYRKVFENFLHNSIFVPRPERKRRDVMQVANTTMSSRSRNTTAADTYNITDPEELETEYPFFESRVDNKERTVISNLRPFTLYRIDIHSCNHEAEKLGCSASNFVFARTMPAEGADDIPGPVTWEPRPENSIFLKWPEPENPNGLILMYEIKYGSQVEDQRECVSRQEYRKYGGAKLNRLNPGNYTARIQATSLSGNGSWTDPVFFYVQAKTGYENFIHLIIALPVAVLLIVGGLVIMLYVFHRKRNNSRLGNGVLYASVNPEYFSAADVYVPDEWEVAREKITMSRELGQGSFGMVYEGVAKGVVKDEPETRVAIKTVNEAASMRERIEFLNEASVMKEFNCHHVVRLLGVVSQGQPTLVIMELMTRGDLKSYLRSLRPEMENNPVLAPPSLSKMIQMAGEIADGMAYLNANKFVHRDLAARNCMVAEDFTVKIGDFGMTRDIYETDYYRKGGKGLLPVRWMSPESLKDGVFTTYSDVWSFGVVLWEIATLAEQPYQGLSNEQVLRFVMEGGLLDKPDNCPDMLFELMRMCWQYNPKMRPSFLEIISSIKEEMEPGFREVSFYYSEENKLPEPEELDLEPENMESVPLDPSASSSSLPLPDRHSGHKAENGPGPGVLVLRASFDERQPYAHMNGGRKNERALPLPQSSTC
structure (smiles),measurement,setting,value
Nc1ncnc2c1c(-c1cccc(OCc3ccccc3)c1)cn2C1CC(CN2CCC2)C1 (stereo not drawn) [NVP-AEW541],AOM-induced ACF formation,[1]; LOI(+) mice,7.8±1.2 ACF per colon
same,decrease in ACFs normalized to colon surface area,[1]; LOI(+) mice,56%
same,AOM-induced ACF formation,[1]; LOI(−) mice,11.3±1.6 ACF per colon
same,decrease in ACFs normalized to colon surface area,[1]; LOI(−) mice,no decrease
same,Ccne1 expression in LOI(+) crypts relative to LOI(−) crypts,[2],0.57 fold
same,Cdc6 expression in LOI(+) crypts relative to LOI(−) crypts,[2],0.49 fold
same,Chaf1a expression in LOI(+) crypts relative to LOI(−) crypts,[2],0.42 fold
same,Lig1 expression in LOI(+) crypts relative to LOI(−) crypts,[2],0.42 fold
same,Mcm3 expression in LOI(+) crypts relative to LOI(−) crypts,[2],0.65 fold
same,Mcm5 expression in LOI(+) crypts relative to LOI(−) crypts,[2],0.48 fold
same,inhibition of IGF2 signaling at the IGF1 receptor,[3],blocks IGF2 at IGF1R
same,selectivity for IGF1R over the insulin receptor,[4],specifically inhibits IGF1R over the related insulin receptor
